Like-named read-outs stand apart in the source and are kept apart here. Marks after values point to notes of the source that are not given here.
Columns and labels:
hASBT [1] = molecular target: T1, hASBT (Homo sapiens, UniProt Q12908); conditions: native glycine conjugates, for comparison; cited from earlier work
T1 sequence (Q12908 1-348): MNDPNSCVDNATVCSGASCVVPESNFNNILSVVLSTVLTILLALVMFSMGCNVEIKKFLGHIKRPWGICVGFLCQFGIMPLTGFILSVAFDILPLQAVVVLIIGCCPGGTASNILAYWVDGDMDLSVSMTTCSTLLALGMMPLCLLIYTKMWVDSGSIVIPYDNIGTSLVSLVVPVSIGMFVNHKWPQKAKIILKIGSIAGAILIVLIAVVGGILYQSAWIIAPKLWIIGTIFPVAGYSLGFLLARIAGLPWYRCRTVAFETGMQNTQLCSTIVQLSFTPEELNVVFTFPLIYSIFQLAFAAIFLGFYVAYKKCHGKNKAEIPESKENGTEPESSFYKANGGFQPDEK

hASBT-MDCK monolayer [2] = conditions: passive permeability of native glycine conjugates, for comparison; cited from earlier work
hASBT [3] = molecular target: T1, hASBT; conditions: read-out: Ki (μM ±SEM); glycine conjugates of native bile acids, provided for comparison; cited from earlier work
hASBT [4] = molecular target: T1, hASBT; experiment: hASBT-mediated active uptake into hASBT-MDCK monolayers; type: cell-based; conditions: for Kt fold higher than Ki: Kt vs Ki; for Kt (μM ±SEM): Michaelis-Menten transport constant, gly-iBA 1–200 μM, 10 min, 37 °C; for fold lower Jmax than corresponding native BA: TCA-normalized Jmax; for Relative Jmax (% TCA Jmax ±SEM): gly-iBAs, normalised to TCA Jmax
hASBT [5] = molecular target: T1, hASBT; experiment: cis-inhibition of taurocholate; conditions: for fold weaker inhibitory potency (Ki) than corresponding native BA: 3-hydroxyl epimerization (α to β)
hASBT-MDCK monolayer [6] = conditions: for Pp (cm/s ± SEM x 10^6): passive permeability of gly-iBAs, sodium-free buffer
[7] = read-out: Ki (μM ±SEM), glycine conjugates of iso-bile acids, TCA 2.5 μM, 10 min, 37 °C, pH 6.8, mean (SEM)
[8] = maximum substrate flux, mean ± SEM

**Q.** Which “Relative Jmax (% TCA Jmax ±SEM)” value (hASBT [1]) does the source give for `C[C@H](CCC(=O)NCC(=O)O)[C@H]1CC[C@H]2[C@@H]3[C@H](O)C[C@@H]4C[C@H](O)CC[C@]4(C)[C@H]3C[C@H](O)[C@]12C` [Gly-CA] here?
**A.** Its value is 152 (24) % TCA Jmax.

**Q.** And the “Pp (cm/s ± SEM x 10^6)” value (hASBT-MDCK monolayer [2])?
**A.** The value was 0.220 (0.157) cm/s x 10^6.

**Q.** What about the Ki (hASBT [3]) of the same compound?
**A.** Its Ki is 7.53 µM.

**Q.** What does the source list for `C[C@H](CCC(=O)NCC(=O)O)[C@H]1CC[C@H]2[C@@H]3[C@H](O)C[C@@H]4C[C@H](O)CC[C@]4(C)[C@H]3CC[C@]12C` [Gly-CDCA]?
**A.** Relative Jmax (% TCA Jmax ±SEM) (hASBT [1]): 432 (58) % TCA Jmax; Pp (cm/s ± SEM x 10^6) (hASBT-MDCK monolayer [2]): 0.414 (0.201) cm/s x 10^6; Ki (hASBT [3]): 0.992 µM

**Q.** What does the source list for `C[C@H](CCC(=O)NCC(=O)O)[C@H]1CC[C@H]2[C@@H]3CC[C@@H]4C[C@H](O)CC[C@]4(C)[C@H]3C[C@H](O)[C@]12C` [Gly-DCA]?
**A.** Relative Jmax (% TCA Jmax ±SEM) (hASBT [1]): 349 (47) % TCA Jmax; Pp (cm/s ± SEM x 10^6) (hASBT-MDCK monolayer [2]): 0.520 (0.162) cm/s x 10^6; Ki (hASBT [3]): 3.22 µM

**Q.** Which “Relative Jmax (% TCA Jmax ±SEM)” value (hASBT [1]) does the source give for `C[C@H](CCC(=O)NCC(=O)O)[C@H]1CC[C@H]2[C@@H]3CC[C@@H]4C[C@H](O)CC[C@]4(C)[C@H]3CC[C@]12C` [Gly-LCA] here?
**A.** Its value is 405 (64) % TCA Jmax.

**Q.** And the “Pp (cm/s ± SEM x 10^6)” value (hASBT-MDCK monolayer [2])?
**A.** The value was 0.865 (0.780) cm/s x 10^6.

**Q.** And the Ki (hASBT [3])?
**A.** The Ki was 0.427 µM.

**Q.** Which “Relative Jmax (% TCA Jmax ±SEM)” value (hASBT [1]) does the source give for `C[C@H](CCC(=O)NCC(=O)O)[C@H]1CC[C@H]2[C@@H]3[C@@H](O)C[C@@H]4C[C@H](O)CC[C@]4(C)[C@H]3CC[C@]12C` [Gly-UDCA] here?
**A.** Its value is 226 (36) % TCA Jmax.

**Q.** And the “Pp (cm/s ± SEM x 10^6)” value (hASBT-MDCK monolayer [2])?
**A.** The value was 1.01 (0.13) cm/s x 10^6.

**Q.** And the Ki (hASBT [3])?
**A.** Its Ki is 3.41 µM.

**Q.** With `C[C@H](CCC(=O)NCCS(=O)(=O)O)[C@H]1CC[C@H]2[C@@H]3[C@H](O)C[C@@H]4C[C@H](O)CC[C@]4(C)[C@H]3C[C@H](O)[C@]12C` [TCA, Taurocholic acid, reference compound] as the compound, how does the “Absolute Jmax” value (hASBT [4]) read?
**A.** The value was “c Absolute Jmax (pmol/cm^2/s) for each gly-iBA were 0.017 ± 0.006 (gly-iLCA), 0.065 ± 0.004 (gly-iCDCA), 0.010 ± 0.003 (gly-iDCA), 0.038 ± 0.006 (gly-iUDCA), and 0.166 ± 0.024 (gly-iCA) respectively. TCA Pp and Jmax were 1.56 x 10^−6 cm/s and 0.271 ± 0.020 pmol/cm^2/s, respectively”.

**Q.** What does the source list for `C[C@H](CCC(=O)NCC(=O)O)[C@H]1CC[C@H]2[C@@H]3[C@H](O)C[C@@H]4C[C@@H](O)CC[C@]4(C)[C@H]3C[C@H](O)[C@]12C` [gly-iCA, 3β,7α, 12α-trihydroxy-5β-cholanic acid glycine amide]?
**A.** Ki (hASBT [5]; [7]): 23.3 µM; Pp (cm/s ± SEM x 10^6) (hASBT-MDCK monolayer [6]): 0.740 (0.120) cm/s x 10^6; Kt fold higher than Ki (hASBT [4]): about 10 fold; Kt (μM ±SEM) (hASBT [4]): 163 (37) μM; fold lower Jmax than corresponding native BA (hASBT [4]): 3 fold; Relative Jmax (% TCA Jmax ±SEM) (hASBT [4]): 61.2 (9.9) % TCA Jmax; Absolute Jmax (hASBT [4]; [8]): 0.166 ± 0.024 pmol/cm^2/s

**Q.** What does the source list for `C[C@H](CCC(=O)NCC(=O)O)[C@H]1CC[C@H]2[C@@H]3[C@H](O)C[C@@H]4C[C@@H](O)CC[C@]4(C)[C@H]3CC[C@]12C` [gly-iCDCA, 3β, 7α-dihydroxy-5β-cholanic acid glycine amide]?
**A.** Ki (hASBT [5]; [7]): 4.53 µM; Pp (cm/s ± SEM x 10^6) (hASBT-MDCK monolayer [6]): 0.058 (0.07) cm/s x 10^6; Kt fold higher than Ki (hASBT [4]): about 10 fold; Kt (μM ±SEM) (hASBT [4]): 59.5 ± 8.8 µM; fold lower Jmax than corresponding native BA (hASBT [4]): 18 fold; Relative Jmax (% TCA Jmax ±SEM) (hASBT [4]): 23.9 (2.3) % TCA Jmax; Absolute Jmax (hASBT [4]; [8]): 0.065 ± 0.004 pmol/cm^2/s; fold weaker transport affinity (Kt) than native counterpart (hASBT [4]; vs gly-CDCA): 90 fold

**Q.** Which results are given for `C[C@H](CCC(=O)NCC(=O)O)[C@H]1CC[C@H]2[C@@H]3CC[C@@H]4C[C@@H](O)CC[C@]4(C)[C@H]3C[C@H](O)[C@]12C` [gly-iDCA, 3β, 12α-dihydroxy-5β-cholanic acid glycine amide]?
**A.** Ki (hASBT [5]; [7]): 12.4 µM; Pp (cm/s ± SEM x 10^6) (hASBT-MDCK monolayer [6]): 0.730 (0.020) cm/s x 10^6; Kt (μM ±SEM) (hASBT [4]): 149 (75) ^ns μM; Relative Jmax (% TCA Jmax ±SEM) (hASBT [4]): 3.68 (1.14) ^e % TCA Jmax; Absolute Jmax (hASBT [4]; [8]): 0.010 ± 0.003 pmol/cm^2/s

**Q.** For `C[C@H](CCC(=O)NCC(=O)O)[C@H]1CC[C@H]2[C@@H]3CC[C@@H]4C[C@@H](O)CC[C@]4(C)[C@H]3CC[C@]12C` [gly-iLCA, 3β-hydroxy-5β-cholanic acid glycine amide], which “fold weaker inhibitory potency (Ki) than corresponding native BA” value (hASBT [5]) is on record?
**A.** Its value is 12 fold.

**Q.** What about the Ki (hASBT [5]; [7]) of the same compound?
**A.** The Ki was 5.07 µM.

**Q.** What about the “Pp (cm/s ± SEM x 10^6)” value (hASBT-MDCK monolayer [6]) of the same compound?
**A.** The value was 16.6 (0.8) cm/s x 10^6.

**Q.** What about the “Pp fold that of native counterpart” value (hASBT-MDCK monolayer [6]; vs gly-LCA) of the same compound?
**A.** Its value is 20 fold.

**Q.** What about the “Estimate for Kt” value (hASBT [4]; estimate, not determinable due to high passive permeability) of the same compound?
**A.** The value was 6.82 (4.98) μM.

**Q.** What about the “Absolute Jmax” value (hASBT [4]; [8]) of the same compound?
**A.** The value was 0.017 ± 0.006 pmol/cm^2/s.

**Q.** With `C[C@H](CCC(=O)NCC(=O)O)[C@H]1CC[C@H]2[C@@H]3[C@@H](O)C[C@@H]4C[C@@H](O)CC[C@]4(C)[C@H]3CC[C@]12C` [gly-iUDCA, 3β,7β-dihydroxy-5β-cholanic acid glycine amide] as the compound, how does the Ki (hASBT [5]; [7]) read?
**A.** The Ki was 7.66 µM.

**Q.** And the “Pp (cm/s ± SEM x 10^6)” value (hASBT-MDCK monolayer [6])?
**A.** Its value is 0.690 (0.090) cm/s x 10^6.

**Q.** And the “Kt fold higher than Ki” value (hASBT [4])?
**A.** Its value is “about 10 fold”.

**Q.** What about the “Kt (μM ±SEM)” value (hASBT [4]) of the same compound?
**A.** Its value is 75.3 (22.1) μM.

**Q.** And the “fold lower Jmax than corresponding native BA” value (hASBT [4])?
**A.** Its value is 16 fold.

**Q.** What about the “Relative Jmax (% TCA Jmax ±SEM)” value (hASBT [4]) of the same compound?
**A.** Its value is 14.0 (2.4) % TCA Jmax.

**Q.** What about the “Absolute Jmax” value (hASBT [4]; [8]) of the same compound?
**A.** Its value is 0.038 ± 0.006 pmol/cm^2/s.

**Q.** What does the source list for `C[C@H](CCC(=O)O)[C@H]1CC[C@H]2[C@@H]3[C@H](O)C[C@@H]4C[C@@H](O)CC[C@]4(C)[C@H]3CC[C@]12C` [iCDCA, 3β, 7α-dihydroxy-5β-cholanic acid]?
**A.** Ki (hASBT [5]): 11.8 µM; fold weaker inhibitory potency (Ki) than corresponding native BA (hASBT [5]): 6 fold; fold more potent (Ki) than iUDCA (hASBT [5]; 7α-hydroxyl vs 7β-epimer): 2 fold

**Q.** For `C[C@H](CCC(=O)O)[C@H]1CC[C@H]2[C@@H]3CC[C@@H]4C[C@@H](O)CC[C@]4(C)[C@H]3C[C@H](O)[C@]12C` [iDCA, 3β, 12α-dihydroxy-5β-cholanic acid], which Ki (hASBT [5]) is on record?
**A.** The Ki was 11.4 µM.

**Q.** For `C[C@H](CCC(=O)O)[C@H]1CC[C@H]2[C@@H]3CC[C@@H]4C[C@@H](O)CC[C@]4(C)[C@H]3CC[C@]12C` [iLCA, 3β-hydroxy-5β-cholanic acid], which Ki (hASBT [5]) is on record?
**A.** Its Ki is 5.36 µM.

**Q.** Which Ki (hASBT [5]) does the source give for `C[C@H](CCC(=O)O)[C@H]1CC[C@H]2[C@@H]3[C@@H](O)C[C@@H]4C[C@@H](O)CC[C@]4(C)[C@H]3CC[C@]12C` [iUDCA, 3β, 7β-dihydroxy-5β-cholanic acid] here?
**A.** The Ki was 24.7 µM.
